Assay results from publication PMC10062662, “Quantitative determination of lurbinectedin, its unbound fraction and its metabolites in human plasma utilizing ultra-performance LC–MS/MS” (PLOS ONE, 2023).
Like-named read-outs stand apart in the source and are kept apart here.

Assays:
[1] = Plasma protein binding by rapid equilibrium dialysis (RED) in K3-EDTA plasma from donors; type: in vitro ADME, human; details: human; for fraction unbound at 8 h, 100 ng/mL: RED 8 hours 37°C; for fraction unbound at 8 h, 100 ng/mL / fraction unbound at 8 h, 500 ng/mL: read-out: mean percent unbound
Description: (§1) RED was considered the best alternative over other methods (e.g., ultrafiltration) to separate lurbinectedin unbound fraction (fu), due to high non-specific binding (NSB) of lurbinectedin leading to adsorption. The RED device consists of a cylinder of dialysis membrane with an 8-kDa molecular weight cut-off held in place by a polytetrafluoroethylene support; the dialysis membrane tube is closed at one end. The RED devices are disposable and used in a reusable polytetrafluoroethylene support plate (holds a maximum of 48 devices). The design of the plate and device allows for PBS to be added in such a way that it can circulate freely around the cylinder of dialysis membrane. In use, spiked plasma (400 μL) is added to the dialysis membrane cylinder part of the RED device, and PBS (600 μL) is added to the other side. The plate, device and volumes used result in a consistent fluid level across both sides of the membrane, preventing mass movement of fluid across the membrane due to hydrostatic pressure.
(§2) Each measurement was performed using three RED devices; the devices were placed in the plate and spiked plasma and PBS were added. The plate was then mixed on an incubating microplate shaker at 100 rpm and 37°C for 8 hours.
(§3) Both the plasma (diluted 1 in 20 with plasma:PBS 1:1, v:v) and PBS (diluted with plasma 1:1, v:v) were assayed in triplicate using the extraction and UPLC-MS/MS method described above. Transfer of the PBS from the incubation plate into an equivalent volume of plasma prior to assay was performed using pipette tips that had been pre-treated with Sigmacote®.
(§4) In vitro PPB experiments to determine lurbinectedin fu were conducted with RED in K3-EDTA plasma from donors. Fresh plasma (not previously frozen), previously frozen plasma (fresh plasma subjected to four cycles of freeze [at -80°C ±10°C for ≥12 hours] then thawed [at room temperature for 2 hours]) and diluted fresh plasma (not previously frozen, diluted 1:1 with PBS prior to incubation) were spiked to 100 ng/mL with lurbinectedin and then equilibrated with PBS in RED devices for 8 hours at 37°C and assayed.
(§5) In addition, the stability of lurbinectedin PPB in fresh plasma following storage at -80°C ±10°C was evaluated; aliquots of fresh plasma samples (not previously frozen) from three donors were spiked with 500 ng/mL of lurbinectedin. The samples were stored for at least 21, 30, 62 and 91 days prior to analysis; the day 0 aliquots were not frozen before analysis. The spiked aliquots from the three donors were equilibrated with PBS in RED devices in triplicate. The samples generated in the RED devices were analyzed in triplicate.

plasma protein = test: as above; type: in vitro ADME, human; details: for percent bound: 100 ng/mL, RED 8 hours 37°C
Description: as §1, §2, §3, §4, §5

[2] = Lurbinectedin concentration in treated patient plasma sample (UPLC-MS/MS); type: in vivo, human; details: single treated patient plasma sample of Fig 2
Method: The sample extraction was performed by adding 100 μL of the CS, QC or test sample, 50 μL of aqueous IS solution and 50 μL of 1 M ammonium hydroxide to a 300-μL 96-well microtiter plate. This was then mixed and transferred to a 200-mg Isolute SLE+ plate. After 5 minutes of equilibrium, the samples were then eluted from the SLE plate with 1 mL of MTBE into glass inserts and dried under nitrogen. The samples were then reconstituted with 40 μL of acetonitrile:water (1:1, v:v) with 0.1% of formic acid prior to analysis.
The ultra-performance liquid chromatography (UPLC) system was coupled to a triple quadrupole mass spectrometer. The UPLC system was a Acquity system (Waters, Milford, MA, USA) and composed of a binary pump, column oven and cooled auto sampler. The mass spectrometer was a TQD with an electrospray ionization source from Waters.
The analytical column was a BEH C18 (1.7 μm, 50 × 2.1 mm) and was used in conjunction with a pre-column frit (0.2 μm, 2.1 mm) from Waters. The chromatographic separation was performed at 50°C with a flow rate of 0.4 mL/minute utilizing a linear gradient of water (A) and acetonitrile (B), both with 0.1% ammonium hydroxide: 10% to 100% B from 0.00 to 1.00 minute; isocratic at 100% B for 1.50 minute, then returning to initial conditions from 2.50 to 2.51 minutes with a total run time of 3.5 minutes. The samples were kept at 10°C until injection (10 μL). […]

[3] = Stability of stock and working solutions at -20°C; type: physicochemical; details: -20°C ±5°C
Method: The stability of stock and working solutions, as well the stability of IS stock solution, following storage at -20°C ±5°C were investigated by concordance verification by comparing the stored solution against a freshly prepared one.

COc1ccc2[nH]c3c(c2c1)CCN[C@]31CS[C@@H]2c3c(OC(C)=O)c(C)c4c(c3[C@H](COC1=O)N1[C@@H]2[C@H]2c3c(cc(C)c(OC)c3O)C[C@@H]([C@@H]1O)N2C)OCO4 [Lurbinectedin]
fraction unbound at 8 h, 100 ng/mL ([1]; fresh K3-EDTA plasma diluted 1:1 with PBS, diluted fresh plasma (1:1 with PBS)): 0.00668
fraction unbound at 8 h, 500 ng/mL ([1]; fresh K3-EDTA plasma from three donors (not frozen), fresh plasma from three donors, day 0 (not frozen)): 0.00151 to 0.00335
fraction unbound at 8 h ([1]; plasma, human plasma, RED (abstract)): 0.004
fraction unbound at 8 h, 100 ng/mL ([1]; previously frozen K3-EDTA plasma (four freeze-thaw cycles), previously frozen plasma (four freeze-thaw cycles)): 0.00443
fraction unbound at 8 h, 500 ng/mL ([1]; three donors, day 21 after storage at -80°C ±10°C): 0.00206 to 0.00319
fraction unbound at 8 h, 500 ng/mL ([1]; three donors, day 30 after storage at -80°C ±10°C): 0.00168 to 0.00266
fraction unbound at 8 h, 500 ng/mL ([1]; three donors, day 62 after storage at -80°C ±10°C): 0.00196 to 0.00286
fraction unbound at 8 h, 500 ng/mL ([1]; three donors, day 91 after storage at -80°C ±10°C): 0.00159 to 0.00213
percent bound (plasma protein; diluted fresh plasma (1:1 with PBS)): 99.3%
percent bound (plasma protein; fresh plasma (not previously frozen)): 99.6%
fraction unbound at 8 h, 500 ng/mL (plasma protein; human, K3-EDTA plasma (fresh, from three donors), following storage at -80°C ±10°C for ≥91 days, read-out: PPB): < 0.01
percent bound (plasma protein; previously frozen plasma (four freeze-thaw cycles)): 99.6%
stability of PPB in fresh plasma following storage (plasma protein; storage at -80°C ±10°C, three donors): ≥ 91 days
plasma concentration in a treated patient sample [2]: 177 ng/mL
stability of working solution following storage for 7 days ([3]; 5 ng/mL in DMSO:ammonium acetate 10 mM ~pH 3 (1:1, v:v)): not demonstrated
stability of stock solution in DMSO ([3]; 1 mg/mL in DMSO): ≥ 32 days
